Patent publication US20220185822A1, “SELECTIVE LIGANDS OF HUMAN CONSTITUTIVE ANDROSTANE RECEPTOR” (USTAV ORGANICKE CHEMIE A BIOCHEMIE AV CR, V.V.I., priority 2019, published 2022)
“Also recorded” adds a separate entry of the source.

Columns and labels:
[1] = biological target: T1, estradion β receptor (Homo sapiens, UniProt Q92731); assay: Luciferase reporter assay with GAL4 construct with LBD, estradion β receptor; type: cell-based; details: 10 μM/L
T1 construct: luciferase reporter assays with a GAL4 constructs with LBD of tested nuclear receptors; expressed in transfected cells
T1 sequence (Q92731 264-498 limits assumed): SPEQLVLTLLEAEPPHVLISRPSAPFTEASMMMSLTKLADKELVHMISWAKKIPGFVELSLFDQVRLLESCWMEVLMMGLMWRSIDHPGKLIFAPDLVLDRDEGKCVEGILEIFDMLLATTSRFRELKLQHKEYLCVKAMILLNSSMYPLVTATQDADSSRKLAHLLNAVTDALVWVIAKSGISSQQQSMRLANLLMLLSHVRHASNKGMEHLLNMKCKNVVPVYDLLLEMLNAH

[2] = system: Salmonella typhimurium strains TA 98, TA 100, TA 1535, TA 1537 and Escherichia coli WP2 uvrA strain; assay: Bacterial Reverse Mutation Test (OECD 471)
[3] = biological target: T2, live X receptor α (Homo sapiens, UniProt Q13133); assay: Luciferase reporter assay with GAL4 construct with LBD, live X receptor α; type: cell-based; details: 10 μM/L
T2 construct: luciferase reporter assays with a GAL4 constructs with LBD of tested nuclear receptors; expressed in transfected cells
T2 sequence (Q13133 209-447 limits assumed): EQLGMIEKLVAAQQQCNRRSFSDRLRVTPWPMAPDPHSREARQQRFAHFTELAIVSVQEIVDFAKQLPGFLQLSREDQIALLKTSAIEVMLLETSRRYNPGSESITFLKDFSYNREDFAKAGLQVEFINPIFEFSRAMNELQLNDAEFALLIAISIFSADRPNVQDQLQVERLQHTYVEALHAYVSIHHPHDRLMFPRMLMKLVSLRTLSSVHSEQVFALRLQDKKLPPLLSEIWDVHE

[4] = biological target: T3, human potassium channel hERG (Homo sapiens, UniProt Q12809); assay: FluxOR II Green Potassium Ion Channel Assay with HEK293-hERG cells; type: cell-based; details: at 20 μM/L
T3 construct: expressed in transfected cells; host or cells: HEK293-hERG
T3 sequence (Q12809 whole entry): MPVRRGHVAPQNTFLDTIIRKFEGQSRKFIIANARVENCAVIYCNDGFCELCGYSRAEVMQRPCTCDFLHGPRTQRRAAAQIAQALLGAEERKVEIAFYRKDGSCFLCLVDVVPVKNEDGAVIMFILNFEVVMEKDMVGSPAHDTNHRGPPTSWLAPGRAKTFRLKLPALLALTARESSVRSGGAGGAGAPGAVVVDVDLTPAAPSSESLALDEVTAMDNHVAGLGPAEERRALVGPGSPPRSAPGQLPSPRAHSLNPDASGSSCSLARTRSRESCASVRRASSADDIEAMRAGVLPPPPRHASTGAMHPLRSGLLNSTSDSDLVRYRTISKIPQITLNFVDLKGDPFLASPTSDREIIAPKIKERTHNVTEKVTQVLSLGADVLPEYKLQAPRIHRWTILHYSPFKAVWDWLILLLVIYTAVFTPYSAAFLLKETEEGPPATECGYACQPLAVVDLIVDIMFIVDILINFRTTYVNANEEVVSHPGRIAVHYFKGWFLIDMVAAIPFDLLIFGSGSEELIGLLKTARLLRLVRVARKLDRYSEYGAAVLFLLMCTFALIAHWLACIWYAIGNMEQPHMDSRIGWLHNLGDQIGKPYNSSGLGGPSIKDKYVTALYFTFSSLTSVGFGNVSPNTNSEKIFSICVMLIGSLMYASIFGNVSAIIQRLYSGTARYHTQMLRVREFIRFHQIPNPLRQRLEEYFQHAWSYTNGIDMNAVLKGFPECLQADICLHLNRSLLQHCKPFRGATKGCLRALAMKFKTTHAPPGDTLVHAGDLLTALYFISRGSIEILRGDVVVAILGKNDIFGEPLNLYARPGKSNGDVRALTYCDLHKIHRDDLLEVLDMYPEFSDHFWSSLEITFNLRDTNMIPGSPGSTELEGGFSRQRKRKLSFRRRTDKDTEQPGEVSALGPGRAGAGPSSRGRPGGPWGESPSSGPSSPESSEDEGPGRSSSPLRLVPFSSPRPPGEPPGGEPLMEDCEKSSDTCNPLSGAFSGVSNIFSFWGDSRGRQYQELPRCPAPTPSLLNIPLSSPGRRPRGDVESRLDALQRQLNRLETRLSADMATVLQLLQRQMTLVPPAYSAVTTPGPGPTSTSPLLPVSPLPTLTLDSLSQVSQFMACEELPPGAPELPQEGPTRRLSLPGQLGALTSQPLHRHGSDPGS
Protocol: For compound of EXAMPLE 93, The FluxOR™ II Green Potassium Ion Channel Assay with HEK293-hERG cells (stably expressing human potassium channel hERG) seeded on Poly-D-Lysine-coated 384-well microplates (Corning, Cat. #356663) was used according to the manufacturer's instructions. hERG stimulation buffer containing thallium and potassium was added and the intracellular fluorescence was measured.

[5] = Repeated Dose 7-day Oral Toxicity Study in Rats; type: in vivo; details: 1 and 10 mg/kg
Protocol: The studies were conducted on female rats.

[6] = biological target: T4, human androgen receptor (Homo sapiens, UniProt P10275); assay: Luciferase reporter assay with GAL4 construct with LBD, androgen receptor; type: cell-based; details: 10 μM/L
T4 construct: luciferase reporter assays with a GAL4 constructs with LBD of tested nuclear receptors; expressed in transfected cells
T4 sequence (P10275 669-900 limits assumed): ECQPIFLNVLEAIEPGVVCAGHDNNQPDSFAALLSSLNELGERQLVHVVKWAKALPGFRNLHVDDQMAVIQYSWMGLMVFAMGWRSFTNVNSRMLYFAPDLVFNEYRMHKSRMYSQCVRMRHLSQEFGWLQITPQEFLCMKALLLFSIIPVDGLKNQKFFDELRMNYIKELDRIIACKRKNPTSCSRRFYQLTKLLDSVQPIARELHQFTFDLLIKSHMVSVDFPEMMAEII

[7] = biological target: T5, PPARα (Homo sapiens, UniProt Q07869); assay: Luciferase reporter assay with GAL4 construct with LBD, PPARα; type: cell-based; details: 10 μM/L
T5 construct: luciferase reporter assays with a GAL4 constructs with LBD of tested nuclear receptors; expressed in transfected cells
T5 sequence (Q07869 239-466 limits assumed): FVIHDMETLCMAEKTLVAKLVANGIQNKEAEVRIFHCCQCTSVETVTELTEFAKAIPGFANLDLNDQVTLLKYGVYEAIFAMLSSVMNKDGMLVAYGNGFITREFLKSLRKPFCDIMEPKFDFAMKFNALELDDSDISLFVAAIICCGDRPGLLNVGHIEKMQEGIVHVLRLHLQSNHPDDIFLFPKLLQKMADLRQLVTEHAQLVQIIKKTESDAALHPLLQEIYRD

[8] = biological target: T6, human CYP2D6 (Homo sapiens, UniProt P10635); assay: Commercial CYP450-Glo inhibition assay, CYP2D6; type: in vitro ADME
T6 construct: purchased Promega V8891
T6 sequence (P10635 whole entry): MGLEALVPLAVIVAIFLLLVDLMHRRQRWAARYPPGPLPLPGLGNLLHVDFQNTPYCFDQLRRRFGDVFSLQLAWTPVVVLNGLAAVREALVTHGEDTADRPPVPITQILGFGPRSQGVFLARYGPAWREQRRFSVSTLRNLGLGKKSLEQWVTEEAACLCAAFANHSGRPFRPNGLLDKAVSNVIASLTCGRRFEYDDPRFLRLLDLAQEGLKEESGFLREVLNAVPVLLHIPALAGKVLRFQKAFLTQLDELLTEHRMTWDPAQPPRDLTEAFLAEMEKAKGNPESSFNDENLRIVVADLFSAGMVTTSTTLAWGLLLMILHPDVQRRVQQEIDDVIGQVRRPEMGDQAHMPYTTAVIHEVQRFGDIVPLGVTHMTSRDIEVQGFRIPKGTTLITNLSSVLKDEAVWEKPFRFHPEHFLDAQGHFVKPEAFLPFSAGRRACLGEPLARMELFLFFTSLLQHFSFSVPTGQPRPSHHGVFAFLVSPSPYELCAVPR

[9] = biological target: T7, glucocorticoid receptor (Homo sapiens, UniProt P04150); assay: Luciferase reporter assay with GAL4 construct with LBD, glucocorticoid receptor; type: cell-based; details: 10 μM/L
T7 construct: luciferase reporter assays with a GAL4 constructs with LBD of tested nuclear receptors; expressed in transfected cells
T7 sequence (P04150 524-758 limits assumed): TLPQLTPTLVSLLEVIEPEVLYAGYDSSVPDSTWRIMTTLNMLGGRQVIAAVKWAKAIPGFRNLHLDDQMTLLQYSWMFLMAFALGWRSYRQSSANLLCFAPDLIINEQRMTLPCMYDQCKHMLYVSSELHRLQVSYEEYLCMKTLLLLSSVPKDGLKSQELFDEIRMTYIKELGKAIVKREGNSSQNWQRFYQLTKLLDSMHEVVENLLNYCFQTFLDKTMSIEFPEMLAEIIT

[10] = system: CYP2B6 mRNA (CAR target gene); assay: RT-qPCR of CYP2B6 mRNA in HepaRG cells; type: cell-based, human; details: 24 h of treatment (FIG. 3)
Source text: Delta-delta method and GAPDH/Gapdh or B2M/B2m housekeeping genes were used for relative quantification. Data are expressed as fold up-/down-regulation compare to vehicle-treated samples/mice.

[11] = system: thyroid hormone receptors; assay: Luciferase reporter assay with GAL4 construct with LBD, thyroid hormone receptors; type: cell-based, human; details: 10 μM/L
[12] = system: CAR target genes mRNAs (Cyp2b10, Cyp2c29, CYP3A4); assay: Single dose study in humanized PXR-CAR-CYP3A4/3A7 mice, liver RT-qPCR; type: in vivo; details: single p.o. 10 mg/kg, 24 hours (FIG. 5)
[13] = Pharmacokinetic studies in mice
[14] = biological target: T8, human CYP1A2 (Homo sapiens, UniProt P05177); assay: Commercial CYP450-Glo inhibition assay, CYP1A2; type: in vitro ADME
T8 construct: purchased Promega V8772
T8 sequence (P05177 whole entry): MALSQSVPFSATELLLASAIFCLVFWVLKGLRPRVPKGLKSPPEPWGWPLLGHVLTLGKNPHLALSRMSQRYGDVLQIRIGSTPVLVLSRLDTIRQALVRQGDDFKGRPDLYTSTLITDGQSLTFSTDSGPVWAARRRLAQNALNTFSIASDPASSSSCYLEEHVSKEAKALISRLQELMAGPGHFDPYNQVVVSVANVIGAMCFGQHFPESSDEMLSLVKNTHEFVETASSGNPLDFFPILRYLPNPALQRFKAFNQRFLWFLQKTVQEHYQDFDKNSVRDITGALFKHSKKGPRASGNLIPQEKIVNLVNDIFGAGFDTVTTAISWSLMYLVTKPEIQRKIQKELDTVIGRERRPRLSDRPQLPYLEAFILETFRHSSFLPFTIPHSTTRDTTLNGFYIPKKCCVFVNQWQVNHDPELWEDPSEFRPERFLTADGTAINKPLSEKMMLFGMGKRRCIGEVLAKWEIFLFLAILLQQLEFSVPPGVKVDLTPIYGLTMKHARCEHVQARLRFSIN

[15] = system: HepG2 cells; assay: Cytotoxicity, cell viability (MTS) in HepG2; type: cell-based; details: Homo sapiens, 48-h treatment, no significant effect at 30 μM/L
Protocol: (§1) Cell viability in HepG2 and COS-1 cells after a 48 h treatment with test compounds at a concentration from 1 up to 30 μM was determined using the modified formazan-based […] assay. […] Briefly, the cells were treated with the test compounds or vehicle alone (DMSO) for 48 h. At the end of the treatment, 20 μl of MTS reagent was added directly to each culture wells and further cultivated for 1.5 h. Finally, the absorbance of converted formazan was recorded at 490 nm by plate reader (BioTec Synergy 2. Winooski. Vt. USA). Vehicle (DMSO) and TritonX100 (0.9%; v/v) controls of cell viability were set to be 100% and 0%, respectively.

[16] = Stability in human plasma; type: in vitro ADME; details: over 120 minutes
[17] = type: in vivo
Protocol: Livers were sampled 24 hours after the last application into liquid nitrogen. In case of i.p. Glucose Tolerance test (IPGTT), each mouse on chronic high fat diet received i.p. application of 20% glucose solution at the dose of lg glucose per kg b.w. Blood glucose concentration was analyzed with a glucometer from blood sampled from the tail. In case of i.p. Isulin Tolerance test (IPITT), mice received insulin administered via i.p. application in the dose of 0.75 mU/g b.w.

[18] = biological target: T9, PPARγ (Homo sapiens, UniProt P37231); assay: Luciferase reporter assay with GAL4 construct with LBD, PPARγ; type: cell-based; details: 10 μM/L
T9 construct: luciferase reporter assays with a GAL4 constructs with LBD of tested nuclear receptors; expressed in transfected cells
T9 sequence (P37231 238-503 limits assumed): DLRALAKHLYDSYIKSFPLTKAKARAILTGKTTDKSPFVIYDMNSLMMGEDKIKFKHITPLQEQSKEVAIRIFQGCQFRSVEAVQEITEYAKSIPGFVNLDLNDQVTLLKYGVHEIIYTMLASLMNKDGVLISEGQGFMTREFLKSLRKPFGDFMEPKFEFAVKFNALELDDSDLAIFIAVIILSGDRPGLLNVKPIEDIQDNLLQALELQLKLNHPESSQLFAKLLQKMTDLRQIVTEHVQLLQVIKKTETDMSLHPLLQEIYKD

[19] = system: CAR+A-EGFP fusion protein; assay: CAR+A-EGFP translocation into nucleus in COS-1 cells; type: cell-based; details: 10 μM/L, 48 h
[20] = biological target: T10, estradion α receptor (Homo sapiens, UniProt P03372); assay: Luciferase reporter assay with GAL4 construct with LBD, estradion α receptor; type: cell-based; details: 10 μM/L
T10 construct: luciferase reporter assays with a GAL4 constructs with LBD of tested nuclear receptors; expressed in transfected cells
T10 sequence (P03372 311-547 limits assumed): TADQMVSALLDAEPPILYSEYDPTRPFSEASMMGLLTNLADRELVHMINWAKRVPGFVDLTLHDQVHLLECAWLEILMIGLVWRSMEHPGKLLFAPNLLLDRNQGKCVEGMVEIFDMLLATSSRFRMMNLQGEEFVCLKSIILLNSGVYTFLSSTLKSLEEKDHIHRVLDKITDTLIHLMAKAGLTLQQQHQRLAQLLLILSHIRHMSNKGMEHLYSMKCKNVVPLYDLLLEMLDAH

[21] = system: COS-1 cells; assay: Cytotoxicity, cell viability (MTS) in COS-1; type: cell-based, African green monkey; details: Chlorocebus sabaeus, 48-h treatment, no significant effect at 30 μM/L
Protocol: as §1

[22] = biological target: T11, human CYP3A4 (Homo sapiens, UniProt P08684); assay: Commercial CYP450-Glo inhibition assay, CYP3A4; type: in vitro ADME
T11 construct: purchased Promega V8802
T11 sequence (P08684 whole entry): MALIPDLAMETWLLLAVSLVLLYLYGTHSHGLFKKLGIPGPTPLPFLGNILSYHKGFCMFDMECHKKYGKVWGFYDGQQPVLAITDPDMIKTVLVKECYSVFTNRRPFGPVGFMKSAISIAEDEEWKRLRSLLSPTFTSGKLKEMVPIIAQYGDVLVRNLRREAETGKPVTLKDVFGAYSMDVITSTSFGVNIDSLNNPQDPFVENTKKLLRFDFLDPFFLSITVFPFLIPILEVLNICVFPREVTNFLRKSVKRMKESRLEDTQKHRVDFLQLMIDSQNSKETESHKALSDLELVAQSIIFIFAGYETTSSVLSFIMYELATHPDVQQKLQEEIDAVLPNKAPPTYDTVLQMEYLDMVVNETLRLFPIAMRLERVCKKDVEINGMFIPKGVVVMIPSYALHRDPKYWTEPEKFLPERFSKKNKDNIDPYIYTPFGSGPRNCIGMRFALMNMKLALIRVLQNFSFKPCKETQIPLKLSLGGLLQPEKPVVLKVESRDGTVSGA

[23] = Human plasma protein binding (micro-equilibrium dialysis); type: in vitro ADME; details: at 1 μM/L
[24] = 10 mg/kg b.w. by gavage for 4 weeks, 60% high-fat diet 8 weeks

NC(=O)c1cc(Cn2cc(-c3c(-c4ccc(Cl)cc4)nc4cc(F)ccn34)nn2)ccc1Cl [Example 93, 2-Chloro-5-((4-(2-(4-chlorophenyl)-7-fluoroimidazo[1,2-a]pyridin-3-yl)-1H-1,2,3-triazol-1-yl)methyl)benzamide]
activation of estradion β receptor [1]: do not activate
mutagenicity in Bacterial Reverse Mutation Test ([2]; all indicator strains, with and without metabolic activation): non-mutagenic
number of revertants compared to solvent controls (Rt/Rc) ([2]; with or without S9 fraction): < 2
activation of live X receptor α [3]: do not activate
interference with hERG activity (FluxOR, HEK293-hERG) [4]: do not interfere with hERG activity
clinical signs of toxicity, Repeated Dose 7-day Oral Toxicity Study in Rats [5]: No significant clinical signs of toxicity
activation of human androgen receptor [6]: do not activate
activation of PPARα [7]: do not activate
IC50 [8]: > 10 µM
activation of glucocorticoid receptor [9]: do not activate
CYP2B6 mRNA in differentiated HepaRG cells [10]: upregulates; also recorded: up-regulation
activation of thyroid hormone receptors [11]: do not activate
CYP3A4 mRNA in the liver [12]: up-regulate
Cyp2b10 mRNA in the liver [12]: up-regulate
Cyp2c29 mRNA in the liver [12]: up-regulate
Bioavailability (F) based on AUCp.o./AUCi.p. ratio ([13]; 10 mg/kg, C57BL/6N mice): 98.6%
delivery into the liver and bile ([13]; FIG. 6): excellent delivery into the liver and bile
IC50 [14]: > 10 µM
IC50 [15]: > 30 µM
stability in human plasma [16]: stable
insulin sensitivity in IPGTT and IPITT [17, 24]: stimulatory effect on insulin sensitivity; also recorded: alleviates insuline resistance and stimulates the effect of insuline
liver hypertrophy (liver-to-body weight ratio) [17, 24]: does not stimulate significantly liver hypertrophy
Mki67 mRNA in mouse liver ([17]; 10 mg/kg, 4 weeks): did not significantly up-regulate
RNA level of Fasn in mouse liver ([17]; 10 mg/kg, 4 weeks): significantly decrease
RNA level of Scd1 in mouse liver ([17]; 10 mg/kg, 4 weeks): significantly decrease
hepatotoxicity (ALT, AST, ALP, LDH biochemical markers) ([17]; 10 mg/kg, 4 weeks): does not display hepatotoxicity
plasma LDL ([17]; 10 mg/kg, 4 weeks): has an effect; also recorded: decreases
plasma cholesterol ([17]; 10 mg/kg, 4 weeks): has an effect; also recorded: decreases
body weight ([17]; 10 mg/kg, after 4 weeks of application): decrease body weight; also recorded: reduces the body weight
activation of PPARγ [18]: do not activate
CAR+A-EGFP fusion protein translocation into nucleus [19]: significantly stimulates
activation of estradion α receptor [20]: do not activate
IC50 [21]: > 30 µM
IC50 [22]: > 10 µM
fraction unbound at 1 μM [23]: 0.01
